Legend:
[1] = system: truncated lungfish MR (MR-CDE); experiment: luciferase reporter transactivation; assay type: cell-based, Protopterus dolloi; conditions: agonist; HEK293, TAT3-luc promoter
full-length lungfish MR = experiment: luciferase reporter transactivation; assay type: cell-based, Protopterus dolloi; conditions: agonist; HEK293, TAT3-luc promoter

| SMILES | EC50 [1] [nM] | EC50 (full-length lungfish MR) [nM] |
| --- | --- | --- |
| C[C@]12CC[C@H]3[C@@H](CCC4=CC(=O)CC[C@@]43C)[C@@H]1CC[C@@H]2C(=O)CO [11-deoxycorticosterone] | 0.13 | 0.04 |
| C[C@]12CCC(=O)C=C1CC[C@@H]1[C@@H]2CC[C@@]2(C)[C@H]1CC[C@]2(O)C(=O)CO [11-deoxycortisol] | 0.27 | 0.17 |
| C[C@]12CCC(=O)C=C1CC[C@@H]1[C@@H]2[C@@H](O)C[C@]2(C=O)[C@@H](C(=O)CO)CC[C@@H]12 [aldosterone] | 0.24 | 0.04 |
| C[C@]12C[C@H](O)[C@H]3[C@@H](CCC4=CC(=O)CC[C@@]43C)[C@@H]1CC[C@@H]2C(=O)CO [corticosterone] | 85.5 | 23.1 |
| C[C@]12CCC(=O)C=C1CC[C@@H]1[C@@H]2[C@@H](O)C[C@@]2(C)[C@H]1CC[C@]2(O)C(=O)CO [cortisol] | 86.7 | 66.1 |
| C[C@@H]1C[C@H]2[C@@H]3CCC4=CC(=O)C=C[C@]4(C)[C@@]3(F)[C@@H](O)C[C@]2(C)[C@@]1(O)C(=O)CO [dexamethasone] | 7.7 | 4.7 |
| CC(=O)[C@H]1CC[C@H]2[C@@H]3CCC4=CC(=O)CC[C@]4(C)[C@H]3CC[C@]12C [progesterone] | 0.044 | 0.03 |
| C[C@]12C=CC(=O)C=C1CC[C@H]1[C@@H]3C[C@@H](O)[C@](O)(C(=O)CO)[C@@]3(C)C[C@H](O)[C@@]12F [triamcinolone] | 2.4 | 1.3 |
